From ChEMBL document CHEMBL5724914, “Linking interpersonal differences in gut microbiota composition and drug biotransformation activity” (2024) come the findings set out here.

A short description of data set [1]: The drug is tested on Z-030 corresponding to mouse gut metagenome with ENA study accession number: PRJEB37062 and ENA sample accession number: ERS12561829 for biotransformation under anaerobic condition. The drug concentrations were measured over 9 timepoints collected between 0 and 24 hours of incubation by liquid-chromatography-coupled mass spectrometry (LC–MS). To be noted: 2 µM.

Data set [2] is described as follows: The drug is tested on Z-029 corresponding to rat gut metagenome with ENA study accession number: PRJEB37062 and ENA sample accession number: ERS12561828 for biotransformation under anaerobic condition. The drug concentrations were measured over 9 timepoints collected between 0 and 24 hours of incubation by liquid-chromatography-coupled mass spectrometry (LC–MS). The conditions noted are these: 2 µM.

The nature of data set [3]: The drug is tested on Z-021 corresponding to metagenome with ENA study accession number: PRJEB37062 and ENA sample accession number: ERS12561820 for biotransformation under anaerobic condition. The drug concentrations were measured over 9 timepoints collected between 0 and 24 hours of incubation by liquid-chromatography-coupled mass spectrometry (LC–MS). To be noted: 2 µM.

Data set [4] can be described thus: The drug is tested on Z-016 corresponding to mouse gut metagenome with ENA study accession number: PRJEB37062 and ENA sample accession number: ERS12561815 for biotransformation under anaerobic condition. The drug concentrations were measured over 9 timepoints collected between 0 and 24 hours of incubation by liquid-chromatography-coupled mass spectrometry (LC–MS). To be noted: 2 µM.

Data set [5] can be described thus: The drug is tested on Z-013 corresponding to rabbit gut metagenome with ENA study accession number: PRJEB37062 and ENA sample accession number: ERS12561813 for biotransformation under anaerobic condition. The drug concentrations were measured over 9 timepoints collected between 0 and 24 hours of incubation by liquid-chromatography-coupled mass spectrometry (LC–MS). To be noted: 2 µM.

Data set [6] in a line: The drug is tested on Z-010 corresponding to metagenome with ENA study accession number: PRJEB37062 and ENA sample accession number: ERS12561810 for biotransformation under anaerobic condition. The drug concentrations were measured over 9 timepoints collected between 0 and 24 hours of incubation by liquid-chromatography-coupled mass spectrometry (LC–MS). The conditions noted are these: 2 µM.

Data set [7] is described as follows: The drug is tested on Z-006 corresponding to mouse gut metagenome with ENA study accession number: PRJEB37062 and ENA sample accession number: ERS12561806 for biotransformation under anaerobic condition. The drug concentrations were measured over 9 timepoints collected between 0 and 24 hours of incubation by liquid-chromatography-coupled mass spectrometry (LC–MS). To be noted: 2 µM.

Data set [8] in a line: The drug is tested on Z-004 corresponding to metagenome with ENA study accession number: PRJEB37062 and ENA sample accession number: ERS12561804 for biotransformation under anaerobic condition. The drug concentrations were measured over 9 timepoints collected between 0 and 24 hours of incubation by liquid-chromatography-coupled mass spectrometry (LC–MS). To be noted: 2 µM.

Data set [9] is described as follows: The drug is tested on WLS-240 corresponding to human gut metagenome with ENA study accession number: PRJEB37062 and ENA sample accession number: ERS12561773 for biotransformation under anaerobic condition. The drug concentrations were measured over 9 timepoints collected between 0 and 24 hours of incubation by liquid-chromatography-coupled mass spectrometry (LC–MS). The conditions noted are these: 2 µM.

Data set [10] in a line: The drug is tested on WLS-170 corresponding to human gut metagenome with ENA study accession number: PRJEB37062 and ENA sample accession number: ERS12561762 for biotransformation under anaerobic condition. The drug concentrations were measured over 9 timepoints collected between 0 and 24 hours of incubation by liquid-chromatography-coupled mass spectrometry (LC–MS). The conditions noted are these: 2 µM.

Data set [11] in a line: The drug is tested on WLS-082 corresponding to human gut metagenome with ENA study accession number: PRJEB37062 and ENA sample accession number: ERS12561751 for biotransformation under anaerobic condition. The drug concentrations were measured over 9 timepoints collected between 0 and 24 hours of incubation by liquid-chromatography-coupled mass spectrometry (LC–MS). The conditions noted are these: 2 µM.

For data set [12] the following is noted: human gut metagenome, 24 h, 2 µM.
The conditions of data set [13]: human gut metagenome, 24 h, 2 µM. This is another data set of the same source.
For data set [14] the following is noted: human gut metagenome, 24 h, 2 µM. This is another data set of the same source.
The conditions of data set [15]: human gut metagenome, 24 h, 2 µM. This is another data set of the same source.
For data set [16] the following is noted: human gut metagenome, 24 h, 2 µM. This is another data set of the same source.
The conditions of data set [17]: human gut metagenome, 24 h, 2 µM. The source holds these as a separate data set.
The conditions of data set [18]: human gut metagenome, 24 h, 2 µM. The source holds these as a separate data set.
For data set [19] the following is noted: human gut metagenome, 24 h, 2 µM. The source holds these as a separate data set.
The conditions of data set [20]: human gut metagenome, 24 h, 2 µM. The source holds these as a separate data set.

Each structure is given as a SMILES string.
Note: call rule not given here.

Consider `CCOC(=O)[C@H](CCc1ccccc1)N[C@@H](C)C(=O)N1[C@H](C(=O)O)C[C@@H]2CCC[C@@H]21`, for which the “Bacterial Biotransformation” value in data set [1] is “Compound NOT metabolized”; in data set [2] it was “Compound NOT metabolized”; in data set [3], “Compound metabolized”; in data set [4], “Compound metabolized”; in data set [5], “Compound NOT metabolized”; in data set [6], “Compound metabolized”. Further, the “Bacterial Biotransformation” value in data set [7] is given as “Compound NOT metabolized”; in [8] it was “Compound metabolized”; in data set [9], “Compound metabolized”; in data set [10], “Compound metabolized”; in [11] it was “Compound metabolized”; in data set [12], “Compound metabolized”. Moreover, the “Bacterial Biotransformation” value is reported as “Compound metabolized” in data set [13]; “Compound NOT metabolized” in [14]; “Compound metabolized” in data set [15]; “Compound metabolized” in [16]; “Compound metabolized” in data set [17]; “Compound metabolized” in data set [18]. Moreover, the “Bacterial Biotransformation” value is “Compound NOT metabolized” in data set [19] and “Compound metabolized” in [20].

Regarding `C[C@@H]1CC[C@H]2[C@@H](C)C(=O)O[C@@H]3O[C@@]4(C)CC[C@@H]1[C@]32OO4` [ARTEMISININ], the “Bacterial Biotransformation” value in [1] was “Compound metabolized”; in data set [2], “Compound metabolized”; in data set [3], “Compound metabolized”; in data set [4], “Compound metabolized”; in [7], “Compound NOT metabolized”; in data set [9], “Compound metabolized”. The “Bacterial Biotransformation” value in data set [10], in data set [11], in [12], in data set [13], in data set [14] and in data set [15] was “Compound metabolized” throughout. In addition, the “Bacterial Biotransformation” value in data set [16] is “Compound metabolized”; in [17] it was “Compound NOT metabolized”; in data set [19], “Compound metabolized”; in data set [20] it was “Compound metabolized”.

With `C#C[C@]1(O)CC[C@H]2[C@@H]3CCC4=Cc5oncc5C[C@]4(C)[C@H]3CC[C@@]21C` [DANAZOL], the “Bacterial Biotransformation” value in data set [1] is on record as “Compound metabolized”; in data set [2] it was “Compound NOT metabolized”; in data set [3], “Compound metabolized”; in [4], “Compound NOT metabolized”; in data set [6], “Compound metabolized”; in [7], “Compound metabolized”. Moreover, the “Bacterial Biotransformation” value in data set [9], in data set [11], in [16], in data set [17], in [18] and in data set [19] was “Compound metabolized” throughout. Besides, the “Bacterial Biotransformation” value in data set [20] is given as “Compound metabolized”.

For `CCN(CC)C(=O)/C(C#N)=C/c1cc(O)c(O)c([N+](=O)[O-])c1` [ENTACAPONE], the “Bacterial Biotransformation” value in data set [1], in [2], in [3], in data set [4], in [5] and in data set [6] was “Compound metabolized” throughout. Further, the “Bacterial Biotransformation” value in data set [7], in data set [8], in data set [17] and in data set [19] was “Compound metabolized” each time.

Consider `COc1c2occc2cc2ccc(=O)oc12` [METHOXSALEN], for which the “Bacterial Biotransformation” value in data set [1] is on record as “Compound NOT metabolized”; in [2], “Compound NOT metabolized”; in [3] it was “Compound metabolized”; in [4], “Compound metabolized”; in [5], “Compound metabolized”; in [6] it was “Compound metabolized”. For the same compound, the “Bacterial Biotransformation” value in [7], in [8], in [9], in [10], in data set [12] and in [13] was “Compound metabolized” in each case. In addition, the “Bacterial Biotransformation” value in data set [14] is “Compound metabolized”; in [15], “Compound metabolized”; in data set [17], “Compound metabolized”; in data set [18], “Compound NOT metabolized”; in data set [19] it was “Compound NOT metabolized”.

As for `Cc1nc2n(c(=O)c1CCN1CCC(c3noc4cc(F)ccc34)CC1)CCCC2` [RISPERIDONE], the “Bacterial Biotransformation” value in data set [1] is reported as “Compound NOT metabolized”; in [2] it was “Compound NOT metabolized”; in data set [3], “Compound metabolized”; in data set [4] it was “Compound metabolized”; in data set [5] it was “Compound metabolized”; in data set [6] it was “Compound metabolized”. Also, the “Bacterial Biotransformation” value in [7], in data set [8], in data set [9], in data set [10], in data set [11] and in data set [12] was “Compound metabolized” in each case. Further, the “Bacterial Biotransformation” value is listed as “Compound metabolized” in [13]; “Compound metabolized” in data set [14]; “Compound metabolized” in data set [16]; “Compound metabolized” in [17]; “Compound metabolized” in [18]; “Compound NOT metabolized” in data set [19]. The “Bacterial Biotransformation” value in data set [20] is recorded as “Compound NOT metabolized”.

`CN(C)CCc1c[nH]c2ccc(Cn3cncn3)cc12.O=C(O)c1ccccc1` [RIZATRIPTAN BENZOATE]: the “Bacterial Biotransformation” value in data set [1], in data set [2], in [3], in data set [4], in data set [5] and in [6] was “Compound NOT metabolized” each time. Besides, the “Bacterial Biotransformation” value in [7], in data set [8], in [9], in [12], in [13] and in data set [14] was “Compound NOT metabolized” throughout. Moreover, the “Bacterial Biotransformation” value in data set [15], in [16], in [17], in [18] and in data set [20] was “Compound NOT metabolized” in each case.
